pIC50: −log10 of the molar value. In brackets after ≈: the same amount, converted by molar mass.
Assays:
Candida albicans = assay: Antifungal activity against Candida albicans assessed as reduction in viability after 24 hrs by broth microdilution assay; type: functional
Leishmania amazonensis [1] = assay: Antileishmanial activity against Leishmania amazonensis promastigotes assessed as reduction in parasite viability after 72 hrs by CCK-8 assay; type: functional, organism-based
Leishmania amazonensis [2] = assay: Antileishmanial activity against Leishmania amazonensis MHOM/BR/75/Josefa intracellular amastigotes infected in CF-1 macrophages assessed as reduction in parasite viability after 72 hrs by optical microscopic method; type: functional, organism-based
Leishmania amazonensis [3] = assay: Antileishmanial activity against Leishmania amazonensis MHOM/BR/75/Josefa promastigotes assessed as reduction in parasite viability after 72 hrs by Neubauer chamber counting method; type: functional, organism-based
Leishmania amazonensis [4] = assay: Antileishmanial activity against Leishmania amazonensis MHOM/BR/77/LTB 0016 intracellular amastigotes infected in BALB/c Peritoneal macrophages assessed as reduction in parasite viability after 72 hrs by light microscopic method; type: functional, organism-based; settings: MHOM/BR/77/LTB 0016, 72 h
Leishmania amazonensis [5] = assay: Antileishmanial activity against Leishmania amazonensis MHOM/BR/77/LTB 0016 promastigotes assessed as reduction in parasite viability after 72 hrs by MTT assay; type: functional, organism-based; settings: MHOM/BR/77/LTB 0016, 72 h
Leishmania donovani = assay: Antileishmanial activity against Leishmania donovani LCR-133 promastigotes assessed as reduction in RNA synthesis at 95 uM preincubated for 30 mins followed by addition of 5-[3H]-uridine and measured up to 145 mins by liquid scintillation counting method relative o control; type: functional; parameters: scale not given: the % may be the effect or the level left
Leishmania mexicana = assay: Antileishmanial activity against Leishmania mexicana intracellular amastigotes infected in J774 macrophages assessed as reduction in parasite viability after 72 hrs; type: functional, organism-based; settings: J774, 72 h

Work on `C[C@@H]1C[C@@H](C)/C=C/C=C/C=C/C=C/C=C/C=C/C=C/[C@H](O[C@@H]2O[C@H](C)[C@@H](O)[C@H](N)[C@@H]2O)C[C@@H]2O[C@](O)(C[C@@H](O)C[C@@H](O)[C@H](O)CC[C@@H](O)C[C@@H](O)CC(=O)O[C@H]1C)C[C@H](O)[C@H]2C(=O)O` yielded an MIC (Candida albicans) of 4 µM (≈ 3.63 µg/mL).

Molecule `C[C@@H]1[C@H](O)[C@@H](C)/C=C/C=C/C=C/C=C/C=C/C=C/C=C/[C@H](O[C@@H]2O[C@H](C)[C@@H](O)[C@H](N)[C@@H]2O)C[C@@H]2O[C@](O)(C[C@@H](O)C[C@@H](O)[C@H](O)CC[C@@H](O)C[C@@H](O)CC(=O)O[C@H]1C)C[C@H](O)[C@H]2C(=O)O` [AMPHOTERICIN B] has an MIC (Candida albicans) of 0.25 µM (≈ 0.231 µg/mL).

`OC(Cn1cncn1)(Cn1cncn1)c1ccc(F)cc1F` [FLUCONAZOLE] was tested, and the pIC50 (Leishmania amazonensis [1]) was 5.00.

`CCC(C)n1ncn(-c2ccc(N3CCN(c4ccc(OCC5COC(Cn6cncn6)(c6ccc(Cl)cc6Cl)O5)cc4)CC3)cc2)c1=O` (centres undefined) [ITRACONAZOLE] gave a pIC50 (Leishmania amazonensis [2]) of 7.10 and a pIC50 (Leishmania amazonensis [3]) of 6.36.

`CC(=O)N1CCN(c2ccc(OCC3COC(Cn4ccnc4)(c4ccc(Cl)cc4Cl)O3)cc2)CC1` (centres undefined) [KETOCONAZOLE] showed a pIC50 (Leishmania amazonensis [4]) of 5.17 and a pIC50 (Leishmania amazonensis [5]) of 5.57.

Molecule `CCCCCCCCCCCCCCCCOP(=O)([O-])OCC[N+](C)(C)C` [MILTEFOSINE] has an Activity (Leishmania donovani) of 96.32%.

Work on `CC(C)=CCC/C(C)=C/CNCCNC1C2CC3CC(C2)CC1C3` (centres undefined) [SQ109] yielded a pIC50 (Leishmania mexicana) of 7.96.

— ChEMBL document CHEMBL4402528, “Multi-target drugs active against leishmaniasis: A paradigm of drug repurposing” (Eur J Med Chem, 2019)
